# In US20210392882A1, “METHODS AND COMPOSITIONS FOR IMPROVED INSECT REPELLENCY” (Board of Trustees of Michigan State University, priority 2020, published 2021):
# Test system: Ae. aegypti mosquitoes
# Assay: Hand-in-cage spatial repellency assay
# Assay type: in vivo, Aedes aegypti
# Text: The hand-in-cage assay employed was similar to the hand-in-glove assay described by Boyle et al. (bioRxiv, 060178 (2016)). The setup for the hand-in-cage assay includes a 30 cm×30 cm×30 cm mosquito cage (BioQuip, Rancho Dominguea, Calif.), with a mounted digital camera and a human hand in a modified glove with a screened window. The digital camera (e-con Systems Inc, San Jose, Calif., model: e-CAM51A) for video recording is mounted on the cage top and connected to a laptop computer. A nitrile rubber glove (Ansell Protective Products, Coshoton, Ohio, part number: 37-155) was cut on the back side of the glove to create a window (6 cm×5 cm) (FIG. 1A). A piece of magnetic frame (slightly larger than the dimension of the window) was glued onto the cut window which was used as a base for stacking more magnetic window frames (FIG. 1A; further explained below). One piece of test compound-treated polyester netting (Shason Textile Inc., part number: WS-B532-111, white; slightly larger than the dimension of the window) was placed on this fixed magnetic frame, which was ˜3.0 mm above the glove. The second piece of the netting was untreated and placed ˜6.0 mm above the treated net using a stack of four magnetic frames. The stacked magnetic frames were further secured with a binder clip. The stacking creates sufficient space between the treated net and the untreated net so that mosquitoes that land on the open window were not able to contact treated net, or to contact and pierce skin of a hand in the glove. The hand makes no contact with the treated net.
# The assay was run in a room with humidity between around 50% and temperature between 27° C. to 30° C. Twenty-four hours before an assay, four to nine days-old females (about 40, mated, non-blood fed) were transferred into a mosquito cage. The cage was kept in an incubator where mosquitoes were provided only with water in a cotton ball placed on the top of the cage. Immediately before the assay, one researcher treated pieces of netting with 500 μl test compound dissolved in acetone in a glass Petri dish in an adjacent room. Acetone served a control. After letting acetone evaporate (˜7 min), the researcher assembled and put on a modified glove. In the meantime, a second researcher or a lab assistant transferred the prepared cage from the incubator to a bench in the assay room. Both personnel avoided use of any hand lotions and cosmetic products before an assay and wore white lab coats and gloves during the assay. The hand with the modified glove was introduced into the cage to initiate the assay. Mosquitoes landing on the test window was recorded by the digital camera for five minutes. The number of mosquitoes landing during the second to fifth minutes was counted and recorded. For each cage, solvent (acetone) control was tested first and then followed with a treatment. Data from any cage that gave a low landing number in a control trial were discarded. The time interval of assays between control and treatment was at least 1.5 hours, allowing the mosquitoes to fully recover and residual vapors from experiments to be ventilated out of the room. Percentage repellency was determined for each cage using the following equation:
# Percentage repellency=[1−(cumulative number of mosquitoes landed on the window of treatment/cumulative number of mosquitoes landed on the window of solvent treatment)]×100).
# The spatial repellency of pyrethrum was examined using a hand-in-cage assay (Ogoma et al. PLoS neglected tropical diseases 11, e0005455 (2017)). In this behavioral assay, mosquitoes were attracted to a human hand in a modified glove (FIG. 1A) with a screened window on the back of the glove. The mosquitoes landed on a piece of control mesh secured on the top of the window. Between the control mesh and the hand is another mesh treated with a test compound, with which mosquitoes cannot make direct contact (FIG. 1A).
structure (smiles),measurement,setting,value
"CC1(C)C2CCC1(C)C(O)C2 (single isomer, unassigned; (-)) [(−)-borneol]","repellency, Orlando vs orco−/−","10^−2 dilution, FIG. 4I",Orco-mediated
same,effect of (E)-β-farnesene on repellency of the compound,"EBF 4 ppm, P-I 1000 ppm, P-II 1000 ppm, (−)-borneol 100 ppm, ROCK, FIG. 4D",No enhancement
